Marks after values point to notes of the source that are not given here.
Experiments:
Assay type in all cases: in vivo
Rats [1] = experiment: Oral Glucose Tolerance Test (OGTT) in rats, single injection (blood glucose AUC, body weight, food consumption); details: 30 nM/kg s.c., mean (n=4); for Body weight change (%): 24 hr
Rats [2] = experiment: as above; details: for Food Consumption (g) / Body weight change (%): 30 nM/kg s.c.; for Food Consumption (g): 0-12 hr; for Food Consumption (g) / Body weight change (%) / Blood Glucose AUC(0-120min) Mean: mean (n=4); for Blood Glucose AUC(0-120min) Mean: OGTT 2 g/kg glucose orally, 24 hr post subcutaneous injection of 30 nM/kg; for % Change in Blood glucose AUC(0-120min) vs placebo control: OGTT 24 hr post subcutaneous injection of 30 nM/kg
Description: Animals were divided into 6 groups (n=4/group): a placebo control group, Compound 17, (30 nM/kg), Compound 18 (30 nM/kg), Compound 19 (30 nM/kg), Compound 20 (30 nM/kg), and Retatrutide (30 nM/kg). Animals were fasted for 12 hours before initiation of OGTT. After 24 hours of subcutaneous injection of tests or Retatrutide, blood glucose was measured with blood glucometer (time 0 measurement). All the animals were given 2 g/kg of glucose solution orally. Blood glucose was measured at 10, 20, 40, 60, 90, and 120 min following glucose challenge. Body weight and food consumption were recorded at 12 hr, 48 hr and 72 hr.

[3] = system: Type 2 diabetes mouse (db/db) model; experiment: Efficacy study in db/db mice (blood glucose, body weight, food consumption); details: 10 nM/kg s.c. single dose, mean (n=6)
Description: The effect of the compounds as described herein on blood glucose, food intake and body weight were studied in mice. This study was performed in Type 2 diabetes mouse (db/db) model. The animals were divided into 9 treatment groups (n=6): a diabetic control group, Compound 12 (10 nM/kg), Compound 13 (10 nM/kg), Compound 26 (10 nM/kg), Compound 14 (10 nM/kg), Compound 15 (10 nM/kg), Compound 21 (10 nM/kg), Compound 22 (10 nM/kg), and Tirzepatide (10 nM/kg). Baseline blood glucose was measured from all the animals. All the animals were administered with test item subcutaneously. Blood glucose was measured at 4 hr, 8 hr, 12 hr, 24 hr, 48 hr, 72 hr, and 96 hr post treatment. Delta blood glucose (mM) was calculated. Body weight changes and cumulative food consumption were measured at 48 hr and 96 hr post treatment. Table 3. Effect on Blood Glucose

SMILES	Food Consumption (g) (Rats [1]; 24-48 hr)	Food Consumption (g) (Rats [1]; 24-72 hr)	Body weight change (%) (Rats [1])	Food Consumption (g) (Rats [2])	Body weight change (%) (Rats [2]; 48 hr)	Body weight change (%) (Rats [2]; 72 hr)	Blood Glucose AUC(0-120min) Mean (Rats [2])	% Change in Blood glucose AUC(0-120min) vs placebo control (Rats [2]) [%]	Cumulative Food Consumption (g) 0-48 hr [3]	Cumulative Food Consumption (g) 0-96 hr [3]	Delta Blood Glucose ([3]; 4 hr post treatment) [mM]	Delta Blood Glucose (mM) ([3]; 24 hr post treatment)	Delta Blood Glucose (mM) ([3]; 48 hr post treatment)	Body Weight Change (%) 48 hr [3]	Delta Blood Glucose ([3]; 96 hr post treatment) [mM]	Body Weight Change (%) 96 hr [3]	further results
CC[C@H](C)[C@H](NC(=O)[C@H](Cc1ccccc1)NC(=O)[C@H](C)NC(=O)C(C)(C)NC(=O)[C@H](CCC(N)=O)NC(=O)[C@H](C)NC(=O)[C@H](CCCCNC(=O)COCCOCCNC(=O)CC[C@H](NC(=O)CCCCCCCCCCCCCCCCCCC(=O)O)C(=O)O)NC(=O)[C@H](CCCCN)NC(=O)[C@H](CC(=O)O)NC(=O)[C@H](CC(C)C)NC(=O)[C@](C)(CC(C)C)NC(=O)[C@@H](NC(=O)[C@H](CO)NC(=O)[C@H](Cc1ccc(O)cc1)NC(=O)[C@H](CC(=O)O)NC(=O)[C@H](CO)NC(=O)[C@@H](NC(=O)[C@H](Cc1ccccc1)NC(=O)[C@@H](NC(=O)CNC(=O)[C@H](CCC(N)=O)NC(=O)C(C)(C)NC(=O)[C@@H](N)Cc1ccc(O)cc1)[C@@H](C)O)[C@@H](C)O)[C@@H](C)CC)C(=O)N[C@@H](CCC(=O)O)C(=O)N[C@@H](Cc1ccc(O)cc1)C(=O)N[C@@H](CC(C)C)C(=O)N[C@@H](CC(C)C)C(=O)N[C@@H](CCC(=O)O)C(=O)NCC(=O)NCC(=O)N1CCC[C@H]1C(=O)N[C@@H](CO)C(=O)N[C@@H](CO)C(=O)NCC(=O)N[C@@H](C)C(=O)N1CCC[C@H]1C(=O)N1CCC[C@H]1C(=O)N1CCC[C@H]1C(=O)N[C@@H](CO)C(N)=O [Retatrutide, reference compound]	8.6*** g	23.8*** g	-6.0*** %	0.7*** g	-4.5*** %	-2.5*** %	3792.5***	-60.79	–	–	–	–	–	–	–	–	–
CCC[C@H](NC(=O)[C@@H](NC(=O)[C@H](CO)NC(=O)[C@H](Cc1ccc(O)cc1)NC(=O)[C@H](CC(=O)O)NC(=O)[C@H](CO)NC(=O)[C@@H](NC(=O)[C@H](Cc1ccccc1)NC(=O)[C@@H](NC(=O)CNC(=O)[C@H](CCC(N)=O)NC(=O)C(C)(C)NC(=O)[C@@H](N)Cc1ccc(O)cc1)[C@@H](C)O)[C@@H](C)O)[C@@H](C)CC)C(=O)N[C@@H](CC(C)C)C(=O)N[C@@H](CC(=O)O)C(=O)N[C@@H](CCCCN)C(=O)N[C@@H](CCCCNC(=O)COCCOCCNC(=O)COCCOCCNC(=O)CC[C@H](NC(=O)CCCCCCCCCCCCCCCCCCC(=O)O)C(=O)O)C(=O)N[C@@H](C)C(=O)N[C@@H](CCC(N)=O)C(=O)NC(C)(C)C(=O)N[C@@H](C)C(=O)N[C@@H](Cc1ccccc1)C(=O)N[C@H](C(=O)N[C@@H](CCC(=O)O)C(=O)N[C@@H](Cc1ccc(O)cc1)C(=O)N[C@@H](CC(C)C)C(=O)N[C@@H](CC(C)C)C(=O)N[C@@H](CCC(=O)O)C(=O)NCC(=O)NCC(=O)N1CCC[C@H]1C(=O)N[C@@H](CO)C(=O)N[C@@H](CO)C(=O)NCC(=O)N[C@@H](C)C(=O)N1CCC[C@H]1C(=O)N1CCC[C@H]1C(=O)N1CCC[C@H]1C(=O)N[C@@H](CO)C(N)=O)[C@@H](C)CC [Compound 18]	5.8*** g	16.8*** g	-6.5*** %	3.0*** g	-4.6*** %	-2.6*** %	4176.3***	-56.82	–	–	–	–	–	–	–	–	–
CCCC[C@H](NC(=O)[C@@H](NC(=O)[C@H](CO)NC(=O)[C@H](Cc1ccc(O)cc1)NC(=O)[C@H](CC(=O)O)NC(=O)[C@H](CO)NC(=O)[C@@H](NC(=O)[C@H](Cc1ccccc1)NC(=O)[C@@H](NC(=O)CNC(=O)[C@H](CCC(N)=O)NC(=O)C(C)(C)NC(=O)[C@@H](N)Cc1ccc(O)cc1)[C@@H](C)O)[C@@H](C)O)[C@@H](C)CC)C(=O)N[C@@H](CC(C)C)C(=O)N[C@@H](CC(=O)O)C(=O)N[C@@H](CCCCN)C(=O)N[C@@H](CCCCNC(=O)COCCOCCNC(=O)C(C)(C)NC(=O)CC[C@H](NC(=O)CCCCCCCCCCCCCCCCCCC(=O)O)C(=O)O)C(=O)N[C@@H](C)C(=O)N[C@@H](CCC(N)=O)C(=O)NC(C)(C)C(=O)N[C@@H](C)C(=O)N[C@@H](Cc1ccccc1)C(=O)N[C@H](C(=O)N[C@@H](CCC(=O)O)C(=O)N[C@@H](Cc1ccc(O)cc1)C(=O)N[C@@H](CC(C)C)C(=O)N[C@@H](CC(C)C)C(=O)N[C@@H](CCC(=O)O)C(=O)NCC(=O)NCC(=O)N1CCC[C@H]1C(=O)N[C@@H](CO)C(=O)N[C@@H](CO)C(=O)NCC(=O)N[C@@H](C)C(=O)N1CCC[C@H]1C(=O)N1CCC[C@H]1C(=O)N1CCC[C@H]1C(=O)N[C@@H](CO)C(N)=O)[C@@H](C)CC [Compound 14]	–	–	–	–	–	–	–	–	3.0*** g	8.3*** g	-3.8	-9.2** mM	-9.3* mM	-8.8*** %	-2.6	-7.1*** %	Delta Blood Glucose ([3]; 8 hr post treatment): -3.1 mM; Delta Blood Glucose ([3]; 12 hr post treatment): -6.2 mM; Delta Blood Glucose ([3]; 72 hr post treatment): -7 mM
CC[C@H](C)[C@H](NC(=O)[C@H](Cc1ccccc1)NC(=O)[C@H](C)NC(=O)C(C)(C)NC(=O)[C@H](CCC(N)=O)NC(=O)[C@H](C)NC(=O)[C@H](CCCCNC(=O)COCCOCCNC(=O)C(C)(C)NC(=O)CC[C@H](NC(=O)CCCCCCCCCCCCCCCCC(=O)O)C(=O)O)NC(=O)[C@H](CCCCN)NC(=O)[C@H](CC(=O)O)NC(=O)[C@H](CC(C)C)NC(=O)[C@](C)(CC(C)C)NC(=O)[C@@H](NC(=O)[C@H](CO)NC(=O)[C@H](Cc1ccc(O)cc1)NC(=O)[C@H](CC(=O)O)NC(=O)[C@H](CO)NC(=O)[C@@H](NC(=O)[C@H](Cc1ccccc1)NC(=O)[C@@H](NC(=O)CNC(=O)[C@H](CCC(N)=O)NC(=O)C(C)(C)NC(=O)[C@@H](N)Cc1ccc(O)cc1)[C@@H](C)O)[C@@H](C)O)[C@@H](C)CC)C(=O)N[C@@H](CCC(=O)O)C(=O)N[C@@H](Cc1ccc(O)cc1)C(=O)N[C@@H](CC(C)C)C(=O)N[C@@H](CC(C)C)C(=O)N[C@@H](CCC(=O)O)C(=O)NCC(=O)NCC(=O)N1CCC[C@H]1C(=O)N[C@@H](CO)C(=O)N[C@@H](CO)C(=O)NCC(=O)N[C@@H](C)C(=O)N1CCC[C@H]1C(=O)N1CCC[C@H]1C(=O)N1CCC[C@H]1C(=O)N[C@@H](CO)C(N)=O [Compound 12]	–	–	–	–	–	–	–	–	3.1*** g	10.9*** g	-3.2	-13.7*** mM	-11.4*** mM	-8.0*** %	-6.4	-3.7*** %	Delta Blood Glucose (mM) ([3]; 8 hr post treatment): -8.9* mM; Delta Blood Glucose (mM) ([3]; 12 hr post treatment): -13.2*** mM; Delta Blood Glucose (mM) ([3]; 72 hr post treatment): -9.2** mM
